Assays:
[1] = test system: RXR-expressing HL-60 cells; test: Acetylation of nuclear histones, Western blot; format: cell-based, human; details: alone or with RXR-specific ligand LG-100268
Text: PPARγ must form a heterodimer with RXR to bind DNA and activate transcription (Nolte et al., 1998). RXR-specific ligands markedly induce the binding of the co-activator SRC-1 to PPARγ-RXR heterodimers ([…] et al., 1998), and assembly of this complex results in a large increase in transcriptional activity. […] One method to increase the effects of PPARγ ligands contemplated herein is by combination with ligands specific for RXR. […] TSA, the histone deacetylase inhibitor, served as a positive control. Combination of the PPARγ ligand CDDO with TSA synergistically induce differentiation in HL-60 cells and the present inventors contemplate that this is a result of transcriptional activation of target genes via histone acetylation.

[2] = test system: U937 cells; test: cells; format: cell-based, human
Protocol: Suspension culture of leukemic cells.
CDDO. The effect of CDDO on the survival of HL-60 and U937 leukemia cell lines is depicted in FIG. 1. A time- and dose-dependent decrease of HL-60 cells: at 48 hours, 10^−8 M, at 72 and 96 hours, 10^−9 M of CDDO reduced cell numbers by 50%. Viability of U937 cells was inhibited at 107 to 1018 at 48 hours. DNA fragmentation was measured to confirm that the cell death induced by CDDO was due to apoptosis on a sub G1 cell population by DNA/RNA flow cytometry (FIG. 2). The percentage of proliferating cells were analyzed by FCM.

[3] = test system: AML CD34+ cells; test: Fas expression in primary AML CD34+ cells; format: cell-based, human
Protocol: Immunophenotyping. The PE-conjugated anti-CD11b, FITC-conjugated anti-CD14 monoclonal antibody (mAb) (Becton Dickinson) and PE-conjugated anti-CD95 mAb (PharMingen) were used at a 1/10 dilution. The percentage of positive cells was calculated by subtracting the percentage of cells with a fluorescence intensity greater than the set marker using the isotype control (background) from the percentage of cells with a fluorescence intensity greater than the same marker using the specific antibody.
Mechanisms of CDDO-induced apoptosis in leukemia cell lines and in primary AML samples were also determined. The involvement of the death receptor/Fas pathway was studied in NB4 cells. Treatment with 0.5 μM CDDO induced cell surface Fas/CD95 expression at 48 hours (MFI 34.8 vs 24.8 in DMSO-treated cells and 26 in untreated control). At this concentration, 22.3% of cells were annexin V positive compared with 11.4% in DMSO-controls. At 1 μM, 56.3% of cells were apoptotic. Similarly, 1 μM CDDO induced Fas expression in 7/12 AML CD34+ cells (MFI, 22.3±3.5 in DMSO-controls, 40±4.3 in CDDO-treated CD34+ cells, p<0.01).

[4] = test system: D9 cells, vector control; test: Annexin V / cell number in D9 vector control cells; format: cell-based
Protocol: Annexin V staining. Cells were washed in phosphate-buffered saline (PBS) and resuspended in 100 μl of binding buffer containing Annexin V (Roche Diagnostic Corporation, Indianapolis, Ind.). Cells were analyzed by flow cytometry after the addition of propidium iodide (PI). Annexin V binds to those cells that express phosphatidylserine on the outer layer of the cell membrane, and PI stains the cellular DNA of those cells with a compromised cell membrane. This allows for live cells (unstained with either fluorochrome) to be discriminated from apoptotic cells (stained only with annexin V) and necrotic cells (stained with both annexin and PI).
To characterize the correlation between PPARγ and caspase activation, caspase-3 levels in D9 cells transfected with wt-PPARγ were analyzed. Six different single cell-derived clones were treated with 3 μM CDDO or vehicle controls for 5 hrs. Caspase-3 cleavage was analyzed by Western blot. A decrease in pro-caspase-3 with appearance of the cleaved product was readily observed in all clones. The degree of cleavage was higher in PPARγ-transfected than in vector control cells that express endogenous PPARγ. […] These changes correlated with plasma membrane changes: vector control=47.0% annexin V-positive cells; wt-PPARγ-transfected cells=73.3±1.1% annexin V (+), n=6. […] PPARγ-transfected cells were also more sensitive to PPARγ-ligand 15d-PGJ2 (41.00% vs 16.0% annexin (+) cells at 3 μM).
To characterize the correlation between PPARγ and caspase activation, caspase-3 levels in D9 cells transfected with wt-PPARγ were analyzed. Six different single cell-derived clones were treated with 3 μM CDDO or vehicle controls for 5 hrs. Caspase-3 cleavage was analyzed by Western blot. A decrease in pro-caspase-3 with appearance of the cleaved product was readily observed in all clones. The degree of cleavage was higher in PPARγ-transfected than in vector control cells that express endogenous PPARγ. […] These changes correlated with plasma membrane changes: vector control=47.0% annexin V-positive cells; wt-PPARγ-transfected cells=73.3±1.1% annexin V (+), n=6. […]

[5] = Murine model of angiogenesis, invasion promoted by ALL BM plasma; format: in vivo; details: 0.5 μM, n=8
Protocol: CDDO-Me. The formation of tube-like endothelial structures that are associated with angiogenesis was analyzed using a Matrigel system (Kubota et al., 1988). Capillary-like structure formation of bone marrow endothelium was inhibited by CDDO-Me. […] Furthermore, in a murine model of angiogenesis, angiogenic invasion promoted by ALL BM plasma was abrogated by CDDO-Me at 0.5 μM (n=8). Thus, CDDO-Me also has anti-angiogenic effects.

SMILES | acetylation of histones H3 and H4 [1] | concentration at which viability of U937 cells was inhibited ([2]; 48 hours) | viability at 1 µM ([2]; Homo sapiens, U-937, 48 h, read-out: cells remaining viable) [%] | viability at 2 µM ([2]; Homo sapiens, U-937, read-out: viable cells) [%] | AML samples with induced Fas expression in CD34+ cells ([3]; 1 μM) | Fas expression, MFI ([3]; 1 μM (22.3±3.5 in DMSO-controls)) | annexin V-positive cells ([4]; 3 μM (CDDO: 5 hrs)) [%] | cell number ([4]; 3 μM CDDO) | angiogenic invasion promoted by ALL BM plasma [5]
CC1(C)CCC2(C(=O)O)CCC3(C)C(C(=O)C=C4C5(C)C=C(C#N)C(=O)C(C)(C)C5CCC43C)C2C1 (stereo not drawn) [CDDO, 2-cyano-3,12-dioxoolen-1,9-dien-28-oic acid] | induction of acetylation of histones H3 and H4 | 107 to 1018 | 44.7 | 30.2 | 7/12 | 40±4.3 | 47.0 | did not change | 
COC(=O)[C@]12CCC(C)(C)C[C@H]1[C@H]1C(=O)C=C3[C@@]4(C)C=C(C#N)C(=O)C(C)(C)[C@@H]4CC[C@@]3(C)[C@]1(C)CC2 [CDDO-Me] |  |  |  |  |  |  |  |  | abrogated
